According to patent publication US20220288077A1, “PROSTATITIS TREATMENT” (NATIONAL INSTITUTE OF BIOLOGICAL SCIENCES, priority 2019, published 2022):

Tested on: carrageenan-induced male rat prostate disease model
Test: Carrageenan-induced male rat prostate disease model: representative RIP1, RIP3 and MLKL inhibitors
Format: in vivo
Conditions: list after the methods of the example; protocols based on RIPA-56
Protocol: Experimental protocols for the compounds of Table 1 were based on those used for RIPA-56. Each inhibitor was intraperitoneally or orally administrated to rat before carrageenan treatment, at the dose of 20 mg/kg to 100 mg/kg.
Each inhibitor was intraperitoneally or orally administrated to rat before carrageenan treatment, at the dose of 20 mg/kg to 100 mg/kg.
All the SD rats were randomly divided into different groups (n=8-10): control group, model group, and compounds-treated groups. For injection of carrageenan or saline, rats were anesthetized with 4% chloral hydrate and were fixed in a supine position. […] A small midline incision was made in the sterile area, then the bladder and the prostate carefully exposed. With a 30-gauge needle, 50 ul sterile suspension of 3% carrageenan (Sigma, MO, USA) or saline (sham group) was injected into both right and left ventral lobes of the prostate gland. […] While an equal amount of solvents were intraperitoneally and orally injected to control rats.

| SMILES | listed under heading Active RIP1 Inhibitors | also measured |
| --- | --- | --- |
| CCC(C)(C)C(=O)N1C(=O)C[C@H]1c1ccccc1 [(S)-1-(2,2-dimethylbutanoyl)-4-phenylazetidin-2-one] | Active | – |
| CC(C)(C)c1nc(-c2cccc(NS(=O)(=O)c3c(F)cccc3F)c2F)c(-c2ccnc(N)n2)s1 [Dabrafenib, N-[3-[5-(2-amino-4-pyrimidinyl)-2-(1,1-dimethylethyl)-4-thiazolyl]-2-fluorophenyl]-2,6-difluoro-benzenesulfonamide] | – | listed under heading Active RIP3 Inhibitors: Active |
| Cc1cc(-c2cnc(N)c3c(-c4ccc5scnc5c4)csc23)n(C)n1 [GSK'843, 3-(benzo[d]thiazol-5-yl)-7-(1,3-dimethyl-1H-pyrazol-5-yl)thieno[3,2-c]pyridin-4-amine] | – | listed under heading Active RIP3 Inhibitors: Active |
| CCC(C)(C)C(=O)N(O)Cc1ccc(F)cc1F [N-(2,4-Difluorobenzyl)-N-hydroxy-2,2-dimethylbutanamide] | Active | – |
| O=C1CCCc2ccc(Br)cc2N1 [8-bromo-4,5-dihydro-1H-benzo[b]azepin-2(3H)-one] | Active | – |
| CCC(C)(C)C(=O)N(O)Cc1cc(F)c(F)c(F)c1 [N-Hydroxy-2,2-dimethyl-N-(3,4,5-trifluorobenzyl)butanamide] | Active | – |
| CC(=O)N1CCC(C(=O)N2N=CC[C@H]2c2cc(F)cc(F)c2)CC1 [(S)-1-(4-(5-(3,5-difluorophenyl)-4,5-dihydro-1H-pyrazole-1-carbonyl)piperidin-1-yl)ethanone] | Active | – |
| O=C(N1CCCC1c1cccc(F)c1)C1(C(F)(F)F)CCC1 (stereo not shown) [(2-(3-fluorophenyl)pyrrolidin-1-yl)(1-(trifluoromethyl)cyclobutyl)methanone] | Active | – |
| CC(C)(C)C(=O)N1N=CC[C@H]1c1ccccn1 [(S)-2,2-dimethyl-1-(5-(pyridin-2-yl)-4,5-dihydro-1H-pyrazol-1-yl)propan-1-one] | Active | – |
| C#CC(C)(C)C(=O)N1CC[C@H]1c1ccccc1 [(S)-2,2-dimethyl-1-(2-phenylazetidin-1-yl)but-3-yn-1-one] | Active | – |
| CC(=O)N1CCC(C(=O)N2N=CC[C@H]2c2ccccc2)CC1 [(S)-1-(4-(5-phenyl-4,5-dihydro-1H-pyrazole-1-carbonyl)piperidin-1-yl)ethanone] | Active | – |
| CC(C)S(=O)(=O)c1ccc2nccc(Nc3ccc4scnc4c3)c2c1 [GSK'872, N-(6-(isopropylsulfonyl)quinolin-4-yl)benzo[d]thiazol-5-amine] | – | listed under heading Active RIP3 Inhibitors: Active |
| O=c1c2c3c(sc2ncn1Cc1ccccc1)CCC3 [3-benzyl-6,7-dihydro-3H-cyclopenta[4,5]thieno[2,3-d]pyrimidin-4(5H)-one] | Active | – |
| CN1C(=O)C(Cc2c[nH]c3ccccc23)NC1=S (stereo not shown) [Nec-1, 5-((1H-indol-3-yl)methyl)-3-methyl-2-thioxoimidazolidin-4-one] | Active | – |
| Cn1c(=O)c2c(nc(S(C)(=O)=O)n2C)n(CC#N)c1=O [TC13-107, 2-(1,7-dimethyl-8-(methylsulfonyl)-2,6-dioxo-1H-purin-3(2H,6H,7H)-yl)acetonitrile] | – | listed under heading Active MLKL Inhibitors: Active |
| CCC(C)(C)C(=O)N(O)Cc1ccccc1 [N-Benzyl-N-hydroxy-2,2-dimethylbutanamide] | Active | – |
| CN1C(=O)[C@@H](NC(=O)c2nnc(Cc3ccccc3)[nH]2)COc2ccccc21 [(S)-5-benzyl-N-(5-methyl-4-oxo-2,3,4,5-tetrahydrobenzo[b][1,4]oxazepin-3-yl)-4H-1,2,4-triazole-3-carboxamide] | Active | – |
| C#CCn1c(=O)n(C)c(=O)c2c1nc(S(C)(=O)=O)n2C [TC13-106, 1,7-dimethyl-8-(methylsulfonyl)-3-(prop-2-ynyl)-1H-purine-2,6(3H,7H)-dione] | – | listed under heading Active MLKL Inhibitors: Active |
| Cn1c(=O)c2c(nc(S(C)(=O)=O)n2C)n(C)c1=O [TC13-4, 1,3,7-trimethyl-8-(methylsulfonyl)-1H-purine-2,6(3H,7H)-dione] | – | listed under heading Active MLKL Inhibitors: Active |
| COc1ccc(OC)c(CS(=O)(=O)c2nc3c(c(=O)n(C)c(=O)n3C)n2C)c1 [TC13-58, (2,5-dimethoxybenzylsulfonyl)-1,3,7-trimethyl-1H-purine-2,6(3H,7H)-dione] | – | listed under heading Active MLKL Inhibitors: Active |

| SMILES | listed under heading Active RIP1 Inhibitors | also measured |
| --- | --- | --- |
| CCC(C)(C)C(=O)N(O)Cc1ccc(F)c(F)c1F [N-Hydroxy-2,2-dimethyl-N-(2,3,4-trifluorobenzyl)butanamide] | Active | – |
| CCC(C)(C)C(=O)N(O)Cc1cc(F)cc(F)c1F [N-Hydroxy-2,2-dimethyl-N-(2,3,5-trifluorobenzyl)butanamide] | Active | – |
| O=C(N[C@H]1COc2cc(Cl)ccc2NC1=O)c1nnc(Cc2ccccc2)[nH]1 [(S)-5-benzyl-N-(8-chloro-4-oxo-2,3,4,5-tetrahydrobenzo[b][1,4]oxazepin-3-yl)-4H-1,2,4-triazole-3-carboxamide] | Active | – |
| Cc1cccc2c(CC3NC(=O)N(C)C3=O)c[nH]c12 (stereo not shown) [3-methyl-5-((7-methyl-1H-indol-3-yl)methyl)imidazolidine-2,4-dione] | Active | – |
| C=CC(C)(C)C(=O)N1C(=O)C[C@H]1c1ccccc1 [(S)-1-(2,2-dimethylbut-3-enoyl)-4-phenylazetidin-2-one] | Active | – |
| CNC(=O)c1ccc2c(c1)ncn2-c1ccc(CC(=O)OC(C)(C)C)cc1 [GSK'840, tert-butyl 2-(4-(5-(methylcarbamoyl)-1H-benzo[d]imidazol-1-yl)phenyl)acetate] | – | listed under heading Active RIP3 Inhibitors: Active |
| CNc1cc(C#CCn2c(=O)n(C)c(=O)c3c2nc(S(=O)(=O)Cc2cc(OC)ccc2OC)n3C)ccn1 [TC13-127, 8-((2,5-dimethoxybenzyl)sulfonyl)-1,7-dimethyl-3-(3-(2-(methylamino)pyridin-4-yl)prop-2-yn-1-yl)-3,7-dihydro-1H-purine-2,6-dione] | – | listed under heading Active MLKL Inhibitors: Active |
| COc1nccnc1NS(=O)(=O)c1ccc(NC(=O)/C=C/c2ccc([N+](=O)[O-])s2)cc1 [Necrosulfonamide, (2E)-N-[4-[[(3-Methoxy-2-pyrazinyl)amino]sulfonyl]phenyl]-3-(5-nitro-2-thienyl)-2-propenamide] | – | listed under heading Active MLKL Inhibitors: Active |
| CCC(C)(C)C(=O)N(O)Cc1ccc(F)cc1 [N-(4-Fluorobenzyl)-N-hydroxy-2,2-dimethylbutanamide] | Active | – |
| O=C(N1CCCC1c1cccc(F)c1)C1(C(F)(F)F)CCCC1 (stereo not shown) [(2-(3-fluorophenyl)pyrrolidin-1-yl)(1-(trifluoromethyl)cyclopentyl)methanone] | Active | – |
| Cn1c(=O)c2c(nc(S(=O)(=O)CC3CC3)n2C)n(CC#Cc2cccc(Cl)c2)c1=O [TC13-119, 3-(3-(3-chlorophenyl)prop-2-yn-1-yl)-8-((cyclopropylmethyl)sulfonyl)-1,7-dimethyl-3,7-dihydro-1H-purine-2,6-dione] | – | listed under heading Active MLKL Inhibitors: Active |
| CCn1c(S(C)(=O)=O)nc2c1c(=O)n(C)c(=O)n2C [TC13-74, 7-ethyl-1,3-dimethyl-8-(methylsulfonyl)-1H-purine-2,6(3H,7H)-dione] | – | listed under heading Active MLKL Inhibitors: Active |
| Cc1ccc(CCCCN2C(=O)N[C@H](Cc3c[nH]c4c(Cl)cccc34)C2=O)cc1C#Cc1cnc2cccnn12 [Ponatinib-Nec1s, (R)-5-((7-chloro-1H-indol-3-yl)methyl)-3-(4-(3-(imidazo[1,2-b]pyridazin-3-ylethynyl)-4-methylphenyl)butyl)imidazolidine-2,4-dione] | Active | – |
| Nc1ncnc2occ(-c3ccc(NC(=O)Nc4cc(C(F)(F)F)ccc4F)cc3)c12 [Cpd27, 1-(4-(4-aminofuro[2,3-d]pyrimidin-5-yl)phenyl)-3-(2-fluoro-5-(trifluoromethyl)phenyl)urea] | Active | – |
| CN1C(=O)[C@@H](NC(=O)c2cc(Cc3ccccc3)on2)COc2ccc(-c3nnn[nH]3)cc21 [(S)-5-benzyl-N-(5-methyl-4-oxo-7-(1H-tetrazol-5-yl)-2,3,4,5-tetrahydrobenzo[b][1,4]oxazepin-3-yl)isoxazole-3-carboxamide] | Active | – |
| Cn1c(=O)c2c(nc(S(C)(=O)=O)n2C)n(CC#Cc2cccc(O)c2)c1=O [TC13-172, 3-(3-(3-hydroxyphenyl)prop-2-yn-1-yl)-1,7-dimethyl-8-(methylsulfonyl)-3,7-dihydro-1H-purine-2,6-dione] | – | listed under heading Active MLKL Inhibitors: Active |
| CN1C(=O)N[C@H](Cc2c[nH]c3c(Cl)cccc23)C1=O [(R)-5-((7-chloro-1H-indol-3-yl)methyl)-3-methylimidazolidine-2,4-dione] | Active | – |
| CN1C(=O)[C@@H](NC(=O)c2n[nH]c(Cc3ccccc3)n2)COc2ccccc21 [GSK2982772, (S)-5-benzyl-N-(5-methyl-4-oxo-2,3,4,5-tetrahydrobenzo[b]-[1,4]oxazepin-3-yl)-1H-1,2,4-triazole-3-carboxamide] | Active | – |
| CN1C(=O)[C@@H](NC(=O)c2cc(Cc3ccccc3)on2)COc2ccccc21 [GSK481, (S)-5-benzyl-N-(5-methyl-4-oxo-2,3,4,5-tetrahydrobenzo[b][1,4]oxazepin-3-yl)isoxazole-3-carboxamide] | Active | – |
| O=C(NCc1c(F)ccc(Cl)c1F)c1snnc1C1CC1 [N-(3-chloro-2,6-difluorobenzyl)-4-cyclopropyl-1,2,3-thiadiazole-5-carboxamide] | Active | – |
